Measurements reported in article PMC11476629, “Exploring a Potential Optimization Route for Peptide Ligands of the Sam Domain from the Lipid Phosphatase Ship2” (International Journal of Molecular Sciences, 2024).
Non-standard residues stand in square brackets, D forms with d. Residues, ends and D or L forms follow the SMILES beside them. βAla = NCCC(=O)O

Legend:
[1] = tested on: EphA2 levels in PC-3 cells; experiment: Western blot analysis of EphA2 levels; assay type: cell-based; conditions: n = 3
Experimental: The levels of EphA2 were monitored in PC-3 cells through Western blot analysis to evaluate if the binding of the TAT-PSscan255 peptide to Ship2-Sam could avoid the inhibition of EphA2 endocytosis and degradation. For this purpose, PC-3 cells were treated with ephrinA1-Fc (1 µg/mL for 2 h) and TAT-PSscan255 (50 µM for 4 h), both alone and in combination (i.e., pre-treating with TAT-peptide 50 µM for 2 h followed by the addition of ephrinA1-Fc 1 µg/mL for an extra 2 h) (Figure 7b).
PC-3 cells were treated with TAT-PSscan255 (50 μM) for 4 h and ephrinA1-Fc (1 μg/mL) for 2 h, both alone and in combination. […] Lysates were centrifuged at 13,000 rpm for 30 min at 4 °C and the protein concentration in the supernatants was evaluated using the Bradford assay. […] Quantification was achieved through densitometric analysis with the ImageJ software (v.1.54g) (National Institutes of Health, Bethesda, MD, USA, https://imagej.org). Statistical significance regarding the comparison between treated and untreated cells was evaluated with one-way ANOVA using Dunnett’s post-test analysis. Statistical analysis was assessed with the OriginPro software v.2023 (OriginLab Corporation, Northampton, MA, USA).

[2] = tested on: normal human dermal fibroblasts (NHDFs); conditions: NHDF, 50 and 100 µM, 4 h, crystal violet; three experiments in quadruplicate
Experimental: (§1) Media and supplements were obtained from Thermo Fisher Scientific (Milan, Italy). PC-3 cells were cultured in the RPMI 1640 medium enriched with 10% fetal bovine serum (FBS) and 2 mM L-glutamine. NHDFs were cultured in the DMEM medium complemented with 2% FBS, 1 μg/mL hydrocortisone, 10 ng/mL human epidermal growth factor, 3 ng/mL basic fibroblast growth factor, and 10 μg/mL heparin. For the cytotoxicity assay 96-well flat-bottom microplates were used and 4 × 10^3 cancer cells and 5 × 10^3 NHDF cells were seeded in 50 μL of medium per well and incubated overnight to permit cell adhesion at 37 °C in a 5% CO2 humidified atmosphere. Following the removal of the culture medium, cells were incubated with 100 μL of their growth medium containing 50 and 100 μM TAT-PSscan255 for 4 h. TAT-PSscan255 was dissolved in water. The crystal violet assay was performed to assess cell viability. The amount of dye taken up was quantified with a plate reader (Multiskan Fc 10094, Thermo Fisher Scientific, Milan, Italy) at 595 nm. Data, reported as means ± SEM of three independent experiments carried out in quadruplicate, were presented as the percentage of proliferating cells compared to the control (vehicle-treated cells).

[3] = tested on: PC-3 cells; conditions: 4 h, crystal violet
Experimental: as §1

For CC[C@H](C)[C@H](NC(=O)[C@H](CCCNC(=N)N)NC(=O)[C@H](CCCCN)NC(=O)[C@H](CC(N)=O)NC(=O)[C@H](C)NC(=O)[C@H](CC(C)C)NC(=O)[C@H](Cc1ccccc1)NC(=O)[C@H](CCCCN)NC(=O)[C@H](Cc1ccc(O)cc1)NC(=O)[C@H](Cc1c[nH]c2ccccc12)NC(=O)[C@H](CCC(=O)O)NC(=O)[C@H](CCCNC(=N)N)NC(=O)[C@H](CCCCN)NC(=O)CNC(=O)CNC(=O)[C@H](CCC(N)=O)NC(=O)[C@@H]1CCCN1C(=O)[C@@H]1CCCN1C(=O)[C@H](CCCNC(=N)N)NC(=O)[C@H](CCCNC(=N)N)NC(=O)[C@H](CCCNC(=N)N)NC(=O)[C@H](CCC(N)=O)NC(=O)[C@H](CCCNC(=N)N)NC(=O)[C@H](CCCNC(=N)N)NC(=O)[C@H](CCCCN)NC(=O)[C@H](CCCCN)NC(=O)[C@H](CCCNC(=N)N)NC(=O)CNC(=O)CCNC(C)=O)C(=O)N[C@@H](C)C(=O)N[C@@H](Cc1ccc(O)cc1)C(N)=O [TAT-PSscan255] (Ac-[βAla]GRKKRRQRRRPPQGGKREWYKFLANKRIAY-NH2), which “EphA2 levels with respect to untreated control” value ([1]; PC-3, TAT-PSscan255 alone, 50 µM for 4 h) is on record?
The value was “a certain decrease in EphA2 levels”.

And the “EphA2 levels with respect to untreated control” value ([1]; PC-3, TAT-peptide 50 µM for 2 h, then ephrinA1-Fc 1 µg/mL added for an extra 2 h)?
Its value is “a reduction in EphA2 levels like that observed for the ephrin ligand when used by itself”.

What about the “Cytotoxic effect (cell viability relative to untreated cells)” value [2] of the same compound?
The value was “increased cytotoxic effect as a function of concentration”.

And the “Cytotoxicity towards PC-3 compared with NHDFs” value ([3]; 50 and 100 µM)?
Its value is “increased cytotoxicity towards PC-3 with respect to NHDFs”.

What about the “Cytotoxic effect (cell viability relative to untreated cells)” value ([3]; PC-3, 50 and 100 µM, three experiments in quadruplicate) of the same compound?
Its value is “increased cytotoxic effect as a function of concentration”.
